Patent publication US8138220B2, “[2-(6-fluoro-1H-indol-3-ylsulfanyl)benzyl]methyl amine for the treatment of affective disorders” (H. Lundbeck A/S, priority 2006, dated 2012)

Legend:
serotonin reuptake = target: T1, serotonin reuptake (Rattus norvegicus, UniProt P31652); assay: Serotonin transport inhibition, [3H]5-HT uptake in rat cortical synaptosomes; format: biochemical; settings: [3H]5-HT 10 nM
T1 construct: rat cortical synaptosome preparation; from tissue; host or cells: rat cortical synaptosomes
Protocol: (§1) Aliquots of test compound and rat cortical synaptosome preparation were pre-incubated for 10 min/37° C., and then added [^3H]NE or [^3H]5-HT (final concentration 10 nM). Non-specific uptake was determined in the presence of 10 μM talsupram or citalopram and the total uptake was determined in the presence of buffer. Aliquots were incubated for 15 minutes at 37° C. After the incubation [^3H]NE or [^3H]5-HT taken up by synaptosomes was separated by filtration through Unifilter GF/C, presoaked in 0.1% PEI for 30 minutes, using a Tomtec CellHarvester program. Filters were washed and counted in a Wallac MicroBeta counter.

noradrenalin reuptake = target: T2, noradrenalin reuptake (Rattus norvegicus, UniProt Q63380); assay: Noradrenalin transport inhibition, [3H]NE uptake in rat cortical synaptosomes; format: biochemical; settings: [3H]NE 10 nM
T2 construct: rat cortical synaptosome preparation; from tissue; host or cells: rat cortical synaptosomes
Protocol: as §1

5-HT2A receptors = 5-HT2A receptors (Homo sapiens, UniProt P28223); assay: 5-HT2A receptor affinity (MDL Pharmaservices catalogue number 271650); format: binding; design: purchased MDL Pharmaservices 271650; settings: Cheng Prusoff from IC50, 5 concentrations
Protocol: 5 concentration of compound (1, 10, 30, 100, 1000 nM) were used to calculate the IC50 value. Ki was calculated from the Cheng Prusoff equation Ki=(IC50/(1+([L]/Kd)) Affinity was determined at MDL Pharmaservices catalogue number 271650.

[1] = system: telemeterised Beagle dogs; assay: Effect on blood pressure in telemeterised Beagle dogs; format: in vivo, dog
Protocol: The cardiovascular effects of compounds of the present invention were investigated in telemeterised Beagle dogs in the doses 0.25, 0.50 and 1.0 mg/kg given by gavage. Amount of compound is calculated as the free base. Six dogs were used in the experiment, three males and three females.

rat 5-HT2A receptor = rat 5-HT2A receptor (Rattus norvegicus, UniProt P14842); assay: Ki for rat versus human 5-HT2A receptor; format: binding
Sequence of rat 5-HT2A receptor (P14842 whole entry): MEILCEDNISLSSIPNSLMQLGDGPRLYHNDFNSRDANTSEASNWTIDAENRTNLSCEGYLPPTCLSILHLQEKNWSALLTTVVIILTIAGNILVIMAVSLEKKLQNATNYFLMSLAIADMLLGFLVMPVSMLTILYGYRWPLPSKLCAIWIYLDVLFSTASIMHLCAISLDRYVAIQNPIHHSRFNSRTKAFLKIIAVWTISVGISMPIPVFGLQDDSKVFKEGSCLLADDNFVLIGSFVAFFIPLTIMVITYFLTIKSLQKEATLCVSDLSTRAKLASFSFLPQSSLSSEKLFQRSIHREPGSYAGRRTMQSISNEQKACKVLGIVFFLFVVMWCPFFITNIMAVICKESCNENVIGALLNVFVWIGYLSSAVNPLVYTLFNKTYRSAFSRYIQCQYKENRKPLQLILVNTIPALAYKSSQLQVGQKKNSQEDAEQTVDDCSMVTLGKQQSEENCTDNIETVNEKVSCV

Sequence of 5-HT2A receptors (P28223 whole entry): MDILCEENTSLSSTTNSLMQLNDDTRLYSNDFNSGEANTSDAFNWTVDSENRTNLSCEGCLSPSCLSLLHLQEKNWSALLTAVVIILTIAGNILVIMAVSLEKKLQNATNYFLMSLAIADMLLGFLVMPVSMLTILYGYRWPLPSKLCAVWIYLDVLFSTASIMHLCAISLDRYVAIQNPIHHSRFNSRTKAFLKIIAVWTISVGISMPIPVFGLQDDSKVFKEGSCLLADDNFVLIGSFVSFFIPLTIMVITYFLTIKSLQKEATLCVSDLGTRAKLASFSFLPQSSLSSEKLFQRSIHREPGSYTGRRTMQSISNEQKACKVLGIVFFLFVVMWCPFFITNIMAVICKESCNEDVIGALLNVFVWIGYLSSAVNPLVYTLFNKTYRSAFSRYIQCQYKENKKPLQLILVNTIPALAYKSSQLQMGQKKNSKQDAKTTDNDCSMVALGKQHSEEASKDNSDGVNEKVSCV
T1 sequence (P31652 whole entry): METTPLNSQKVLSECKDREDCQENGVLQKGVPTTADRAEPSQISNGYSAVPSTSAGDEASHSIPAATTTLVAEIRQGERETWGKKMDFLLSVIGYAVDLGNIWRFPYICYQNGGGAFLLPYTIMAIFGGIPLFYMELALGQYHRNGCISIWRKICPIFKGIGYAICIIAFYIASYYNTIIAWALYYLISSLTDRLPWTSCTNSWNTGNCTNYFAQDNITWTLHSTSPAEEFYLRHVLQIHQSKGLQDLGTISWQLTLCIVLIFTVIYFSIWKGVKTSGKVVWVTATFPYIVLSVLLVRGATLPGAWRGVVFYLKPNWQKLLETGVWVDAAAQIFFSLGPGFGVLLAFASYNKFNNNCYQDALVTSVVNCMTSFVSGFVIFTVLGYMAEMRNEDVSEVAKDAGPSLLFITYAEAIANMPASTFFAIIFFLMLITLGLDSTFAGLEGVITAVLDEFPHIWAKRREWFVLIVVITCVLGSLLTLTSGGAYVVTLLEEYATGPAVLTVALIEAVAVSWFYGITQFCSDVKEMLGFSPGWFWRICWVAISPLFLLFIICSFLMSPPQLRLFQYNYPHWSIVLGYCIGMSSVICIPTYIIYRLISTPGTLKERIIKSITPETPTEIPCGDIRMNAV
T2 sequence (Q63380 1-617): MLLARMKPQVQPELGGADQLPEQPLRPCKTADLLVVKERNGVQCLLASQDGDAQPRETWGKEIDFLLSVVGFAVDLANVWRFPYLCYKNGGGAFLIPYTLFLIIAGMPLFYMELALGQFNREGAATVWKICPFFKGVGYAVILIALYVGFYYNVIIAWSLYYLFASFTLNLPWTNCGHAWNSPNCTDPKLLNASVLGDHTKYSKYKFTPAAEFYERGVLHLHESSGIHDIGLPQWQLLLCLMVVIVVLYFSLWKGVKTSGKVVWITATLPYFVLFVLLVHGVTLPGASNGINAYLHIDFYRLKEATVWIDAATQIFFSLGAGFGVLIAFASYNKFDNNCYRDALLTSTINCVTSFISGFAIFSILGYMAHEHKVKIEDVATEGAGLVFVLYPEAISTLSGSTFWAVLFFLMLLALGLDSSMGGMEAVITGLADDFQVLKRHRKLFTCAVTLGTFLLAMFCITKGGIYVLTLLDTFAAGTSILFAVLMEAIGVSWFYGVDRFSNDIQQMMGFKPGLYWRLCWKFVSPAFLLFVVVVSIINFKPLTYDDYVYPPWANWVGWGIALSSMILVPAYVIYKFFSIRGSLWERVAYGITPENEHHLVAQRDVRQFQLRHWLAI

`CNCc1ccccc1Sc1c[nH]c2cc(F)ccc12` [compounds of the present invention, [2-(6-fluoro-1H-indol-3-ylsulfanyl)benzyl]methyl amine] was tested, and the IC50 (serotonin reuptake) was 0.4 nM, the IC50 (noradrenalin reuptake) was 4.4 nM and the Ki (5-HT2A receptors) was 14 nM. The “Systolic arterial blood pressure (Change from baseline (mean ± SD)) (10-380 min)” value ([1]; 0.25 mg/kg by gavage) was −4.26 ± 5.98, the “Systolic left ventricular pressure (Change from baseline (mean ± SD)) Post-dose period I (10-380 min)” value ([1]; 0.25 mg/kg by gavage) was −3.82 ± 3.42^♀ and the “Systolic arterial blood pressure (Change from baseline (mean ± SD)) (10-380 min)” value ([1]; 0.50 mg/kg by gavage) was −9.77 ± 5.39. The “Systolic left ventricular pressure (Change from baseline (mean ± SD)) Post-dose period I (10-380 min)” value ([1]; 0.50 mg/kg by gavage) was −11.13 ± 4.05^♂♀, the “Systolic arterial blood pressure (Change from baseline (mean ± SD)) (10-380 min)” value ([1]; 1.00 mg/kg by gavage) was −6.30 ± 6.63 and the “Systolic left ventricular pressure (Change from baseline (mean ± SD)) Post-dose period I (10-380 min)” value ([1]; 1.00 mg/kg by gavage) was −3.08 ± 5.37^♂,♀. The “Ki rat 5-HT2A receptor higher than human 5-HT2A receptor” value (rat 5-HT2A receptor) was roughly 40 fold.
